Ki and IC50 data for 39 molecules are collected here from ChEMBL document CHEMBL1141122, “Receptor flexibility in de novo ligand design and docking” (J Med Chem, 2005).

One assay has as its target T1, Interstitial collagenase (Homo sapiens, UniProt P03956).
T1 sequence (P03956 whole entry): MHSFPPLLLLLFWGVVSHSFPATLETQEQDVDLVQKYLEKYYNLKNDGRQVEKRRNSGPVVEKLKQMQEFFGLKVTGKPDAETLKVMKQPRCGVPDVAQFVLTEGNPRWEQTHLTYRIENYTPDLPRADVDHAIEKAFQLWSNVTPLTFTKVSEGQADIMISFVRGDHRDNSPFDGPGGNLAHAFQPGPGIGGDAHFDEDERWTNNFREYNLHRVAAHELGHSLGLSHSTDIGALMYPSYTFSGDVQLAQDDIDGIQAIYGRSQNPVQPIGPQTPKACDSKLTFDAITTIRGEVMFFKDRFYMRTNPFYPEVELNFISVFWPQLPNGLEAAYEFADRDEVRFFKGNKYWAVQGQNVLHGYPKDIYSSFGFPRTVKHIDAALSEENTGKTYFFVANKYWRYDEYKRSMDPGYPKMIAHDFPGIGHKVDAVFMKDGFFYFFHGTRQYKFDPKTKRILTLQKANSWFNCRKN
Kind of assay: Binding affinity towards (MMP-1) matrix metalloprotease-1.
Turning to `O=C(CNS(=O)(=O)c1ccc(Oc2ccncc2)cc1)NO`, the Ki (commonly a dissociation constant, usually derived from enzyme kinetics or from competition with a known ligand) was found to be 8.2 nM. That is a single-digit nanomolar value. `O=C(CNC(=O)c1ccc(Oc2ccc(Cl)cc2)cc1)NO` came in with a Ki of 70 nM. Molecule `O=C(CNC(=O)c1ccc(C(F)(F)F)cc1)NO` returned a Ki of 3 nM.

`O=C(CNC(=O)N1CCC(Oc2ccc(-n3ccnc3)cc2)CC1)NO` came in with a Ki of 224 nM. Compared with the last molecule, the Ki is about 75-fold higher. Still for that read-out and setting: for `COc1ccc(C(=O)NCC(=O)NO)cc1` the value was 33 nM.

`O=C(CNS(=O)(=O)c1ccc(Oc2ccc(Cl)cc2)cc1)NO` gave a Ki of 70 nM. The molecule `O=C(CCC(=O)c1ccc(Oc2ccncc2)cc1)NO` gave a Ki of 8.2 nM. In turn, `O=C(CCS(=O)(=O)N1CCC(Oc2ccc(-n3ccnc3)cc2)CC1)NO` registered an inhibition constant (Ki) of 224 nM. `COc1ccc(S(=O)(=O)CCC(=O)NO)cc1` came in with a Ki of 33 nM. This Ki lies about 6.8-fold lower than the previous one.

`O=C(CCC(=O)c1ccc(C(F)(F)F)cc1)NO` displayed a Ki of 3 nM. This Ki lies about 11-fold lower than the previous one. Same read-out and setting: for `O=C(CCS(=O)(=O)c1ccc(C(F)(F)F)cc1)NO` the value was 3 nM; for `O=C(CNS(=O)(=O)c1ccc(C(F)(F)F)cc1)NO`, 3 nM. Still for that read-out and setting: next, `COc1ccc(C(=O)CCC(=O)NO)cc1`: 33 nM; `O=C(CCC(=O)c1ccc(Oc2ccc(Cl)cc2)cc1)NO`: 70 nM; `O=C(CCC(=O)N1CCC(Oc2ccc(-n3ccnc3)cc2)CC1)NO`: 224 nM. As for `O=C(CNS(=O)(=O)N1CCC(Oc2ccc(-n3ccnc3)cc2)CC1)NO`, the Ki stood at 224 nM. The same measure, in the same setting: next, `O=C(CCS(=O)(=O)c1ccc(Oc2ccc(Cl)cc2)cc1)NO`: 70 nM; `O=C(CCS(=O)(=O)c1ccc(Oc2ccncc2)cc1)NO`: 8.2 nM; `O=C(CNC(=O)c1ccc(Oc2ccncc2)cc1)NO`: 8.2 nM.

The target in a further assay is T1, Interstitial collagenase. Description: Inhibitory concentration against (MMP-1) matrix metalloprotease-1.
As to `CC#COc1ccc(C(=O)CCC(=O)NO)cc1`, the IC50 – broadly, the point on the concentration scale where inhibition reaches its midpoint – amounted to 121 nM. On the same count and under the same terms, next, `O=C(CCS(=O)(=O)c1ccc(Oc2ccccc2)cc1)NO`: 22 nM; `CCCCOc1ccc(C(=O)CCC(=O)NO)cc1`: 920 nM.

In the case of `CC#COc1ccc(S(=O)(=O)CCC(=O)NO)cc1`, the midpoint of inhibition, the IC50, lay at 121 nM. Still for that read-out and setting: for `CCCCOc1ccc(S(=O)(=O)NCC(=O)NO)cc1` the value was 920 nM. Take `Cc1cc(F)ccc1COc1ccc(C(=O)NCC(=O)NO)cc1`: the IC50 worked out at 10 nM.

Consider `O=C(CCC(=O)c1ccc(Oc2ccccc2)cc1)NO`, for which it took 22 nM to reach half-maximal inhibition (IC50). In turn, `O=C1CC=C2C=CC=C(C(=O)CCC(=O)NO)N2C1` yielded an IC50 of 3 nM.

Turning to `O=C(CNC(=O)c1ccc(Oc2ccccc2)cc1)NO`, inhibition was half-maximal at 22 nM (IC50). `O=C1CC=C2C=CC=C(S(=O)(=O)NCC(=O)NO)N2C1` gave a half-inhibitory concentration (IC50) of 1.3 nM. Same read-out and setting: next, `O=C(CNS(=O)(=O)c1ccc(Oc2ccccc2)cc1)NO`: 22 nM; `Cc1cc(F)ccc1COc1ccc(C(=O)CCC(=O)NO)cc1`: 10 nM.

`Cc1cc(F)ccc1COc1ccc(S(=O)(=O)CCC(=O)NO)cc1` displayed an IC50 of 10 nM. Take `O=C1CC=C2C=CC=C(S(=O)(=O)CCC(=O)NO)N2C1`: inhibition was half-maximal at 1.3 nM (IC50). The same measure, in the same setting: next, `Cc1cc(F)ccc1COc1ccc(S(=O)(=O)NCC(=O)NO)cc1`: 10 nM; `CC#COc1ccc(C(=O)NCC(=O)NO)cc1`: 121 nM; `CCCCOc1ccc(C(=O)NCC(=O)NO)cc1`: 920 nM. `CCCCOc1ccc(S(=O)(=O)CCC(=O)NO)cc1` displayed an IC50 of 920 nM. That is a sub-micromolar value. With `CC#COc1ccc(S(=O)(=O)NCC(=O)NO)cc1`, inhibition was half-maximal at 121 nM (IC50). This IC50 lies about 7.6-fold lower than the previous one. In turn, `O=C1CC=C2C=CC=C(C(=O)NCC(=O)NO)N2C1` came in with an IC50 of 1.3 nM.
